Experimental data published in patent publication US20120259413A1, “DEVICES, COMPOSITIONS AND METHODS UTILIZING EP4 AND EP2 RECEPTOR AGONISTS FOR PREVENTING, REDUCING OR TREATING CAPSULAR CONTRACTURE” (ALLERGAN, INC., priority 2011, published 2012).

How the values were obtained:
VEGF = VEGF expression at wound sites (Western blot); type: in vivo, Sprague Dawley rats; details: wound tissue, transiently at day-7
Description: (§1) 2 cm long incisional full thickness skin wounds were made on the back of Sprague Dawley rats. Wounds were treated with vehicle or EP4 agonist (compound I). The wound tissue was biopsied at day-7 or day-14 post-surgery. The samples were homogenized in protein extraction buffer after being frozen in liquid nitrogen. The protein concentrations were measured. Then the samples were loaded into 4-10% SDS-Pages to resolve the proteins. After electrophoresis, the proteins were transferred onto nitrocellular membranes. The membranes were blocked with anti-VEGF, anti-bFGF or anti-beta-actin, respectively. […] It is reported that bFGF prevents scar formation and reduces hypertrophic and burn-induced skin scars. VEGF expression was boosted by 25% transiently at day-7, which may contribute to angiogenesis at wound site and facilitate scar-free healing.

hEP4/Gqs = biological target: T1, hEP4/Gqs (Homo sapiens, UniProt P35408); test: FLIPR Ca2+ signal assay, hEP4/Gqs; type: cell-based
T1 construct: expressed in transfected cells
T1 sequence (P35408 whole entry): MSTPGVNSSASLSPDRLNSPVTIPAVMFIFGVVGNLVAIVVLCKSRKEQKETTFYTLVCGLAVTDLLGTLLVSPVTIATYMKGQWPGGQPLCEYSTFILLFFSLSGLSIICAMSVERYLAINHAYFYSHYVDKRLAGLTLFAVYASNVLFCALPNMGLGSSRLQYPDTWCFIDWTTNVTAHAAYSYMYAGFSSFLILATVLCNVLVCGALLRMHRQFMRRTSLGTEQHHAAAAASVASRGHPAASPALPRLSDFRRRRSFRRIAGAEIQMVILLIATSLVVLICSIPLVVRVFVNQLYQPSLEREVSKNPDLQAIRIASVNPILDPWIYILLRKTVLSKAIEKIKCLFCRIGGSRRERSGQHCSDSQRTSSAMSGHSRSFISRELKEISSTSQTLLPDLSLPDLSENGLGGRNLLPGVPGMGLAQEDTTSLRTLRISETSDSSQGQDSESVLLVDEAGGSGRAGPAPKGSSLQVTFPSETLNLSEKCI
Description: (§2) cAMP assay was carried out using AlphaScreen cAMP assay kits (PerkinElmer, Boston, Mass.) following manufacturer instructions. Intracellular Ca^2+ was monitored using a FLIPR Tetra system and assay kits from Molecular Devices following manufacturer instructions. All assays were carried out in HEK-293 cells heterologously and stably expressing each of the eight human recombinant prostanoid receptors. For Ca^2+ signals, hEP2, hEP4, hDP were co-expressed with a chimeric G protein, Gqs, which converts Gs signal to Gq Ca^2+ signal, and hEP3 with a chimeric G protein, Gqi. Each receptor-selective agonist induced Ca^2+ signals with sub-nanomolar or nanomolar EC50 values. Subtype-selective compounds used here are PGE2 for EP1, EP2, EP3 and EP4; BW245C for DP; 17-phenyl PGF2α for FP, carbacyclin for IP and U-46619 for TP.
(§3) Human Recombinant EP1, EP2, EP3, EP4, FP, TP, IP and DP Receptors: Stable Transfectants
(§4) Plasmids encoding the human EP1, EP2, EP3, EP4, FP, TP, IP and DP receptors are prepared by cloning the respective coding sequences into the eukaryotic expression vector pCEP4 (Invitrogen). […] Selection of stable transfectants is achieved with 200 μg ml^−1 hygromycin, the optimal concentration being determined by previous hygromycin kill curve studies. […]

bFGF = bFGF expression at wound sites (Western blot); type: in vivo, Sprague Dawley rats; details: wound tissue, day-7 and day-14
Description: as §1

[1] = biological target: T2, human recombinant EP4 receptor (HEK-293 cells) (Homo sapiens, UniProt P35408); test: AlphaScreen cAMP assay, EP4 receptor; type: cell-based; details: read-out: EC50 for increased cAMP production
T2 construct: expressed in transfected cells
T2 sequence (P35408 whole entry): as above
Description: as §2, §3, §4

[2] = system: cultured human skin fibroblasts; test: TGF-β1-induced myofibroblast formation (α-SMA Western blot); type: cell-based; details: 10 or 100 nM with TGF-β1 2 ng/ml, 72 hours
Description: EP4 and EP2 Receptor Agonists Inhibit TGF-β1-Induced Myofibroblasts Formation
Adult skin fibroblasts were derived from normal skin of a person, purchased from ATCC(CRL-7346). Cells were cultured in DMEM medium supplemented with 10% fetal bovine serum and 1% streptomycin and penicillin in incubators at 37° C. and 5% CO2. Cells were seeded in 10 cm dishes at 1×10^6 cells/dish. When the cells became 80% confluent, they were cultured in serum-free medium for 48 hrs after washing away residual serum with PBS. Vehicle, Compound I (EP4 receptor agonist), or Compound II (EP2 receptor agonist), together with human recombinant TGF-β1 (2 ng/ml), were added to culture medium at 0, 10 or 100 nM final concentration, respectively. Compound I or 2 was first dissolved in DMSO, the final DMSO concentration was 0.1%. Cell lysates were collected at 72 hours after treatments, respectively. Proteins were quantified and resolved on 4-10% SDS-PAGE. Then the proteins were transferred to membrane by electrophoresis. The membranes were blocked with mouse-anti-alpha smooth muscle actin (α-SMA) antibody, and a second antibody against mouse-IgG conjugated with AP (purchased from Signal Transduction). Shown in FIG. 1A is a representative image of Western Blot myofibroblast marker expression under the treatment of EP4 or EP2 receptor agonists in combination with TGF-β1 in cultured human skin fibroblasts.

[3] = biological target: T3, human recombinant EP4 receptor (Homo sapiens, UniProt P35408); test: Radioligand binding assay ([3H]PGE2 competition), EP4 receptor
T3 construct: expressed in transfected cells
T3 sequence (P35408 whole entry): as above
Description: (§5) General Protocol for Radioligand Binding Assays and cAMP assays:
(§6) Radioligand binding studies on plasma membrane fractions prepared from cells** are performed as follows. Cells washed with TME buffer are scraped from the bottom of the flasks and homogenized for 30 sec using a Brinkman PT 10/35 polytron. TME buffer is added as necessary to achieve a 40 ml volume in the centrifuge tubes. TME is comprised of 50 mM TRIS base, 10 mM MgCl2, 1 mM EDTA; pH 7.4 is achieved by adding 1 N HCl. The cell homogenate is centrifuged at 19,000 rpm for 20-25 min at 4° C. using a Beckman Ti-60 or Tt-70 rotor. The pellet is then re-suspended in TME buffer to provide a final protein concentration of 1 mg/ml, as determined by Bio-Rad assay. Radioligand binding assays are performed in a 100 μl or 200 μl volume.
(§7) The binding of [^3H] PGE2 (specific activity 165 Ci/mmol) is determined in duplicate and in at least 3 separate experiments. […] PGE2 and non-specific binding is determined with 10^−5 M unlabelled PGE2. […]
as §4

incisional skin wounds [4] = test: Incisional skin wound study, 14 day pilot, topical treatment; type: in vivo, Sprague-Dawley rats
Description: Sprague-Dawley rats weighing 180-200 grams were anesthetized with isoflourane. After shaving, a 2-cm long incision was made, reaching the deep fascia on the back skin of rats under sterile conditions. The wounds were immediately closed with 4-0 sutures. A 14 day pilot study was carried out. The animals were topically treated with vehicle or Compound 1 at 0.004% twice daily. The vehicle contained ethanol 30%, propylene glycol 12%, dipropylene glycol 5%, benzyl alcohol 5%, glycerol 3% and normal saline 45%. The wound was photographed daily; biopsy was performed at 2, 3, 7 and 14 days post-surgery for histopathology and molecular biology analysis.
(§8) The wound tissue was biopsied for histopathology on day 3, 14 and 70. To observe the skin wound, paraffin-embedded wound sections were made. Regular H&E staining was carried out in comparison with Masson trichrome and/or Picosirus red to visualize the collagen fibers. To monitor myofibroblasts in skin wound, the sections were immunohistochemically stained to identify alpha-smooth muscle actin. To assess wound appearance, all the scar photos were mixed together by the end of each study. The scar severity was scored on a scale of 0 to 10, with 0 being invisible, 1 the minimal and 10 the worst. Each scar was divided into 4 regions, separated by suture sites; each quarter was scored independently; the mean of the 4 part scores was recorded as the gross score of each wound.

incisional skin wounds [5] = test: Incisional skin wound study comparing Compound I and TGF-β3; type: in vivo, rats; details: for number of neutrophils counted in three sections: 3 days post-surgery, H&E, n=5, vehicle 60.6±30; for macroscopic surface appearance of wound sites / abnormal regions of dense, red, fine parallel fibers in wound gaps: 70 days post-surgery; for abnormal regions of dense, red, fine parallel fibers in wound gaps: Picrosirius red; for widths of the abnormal structured dermis regions versus vehicle: day 14, Masson trichrome; for gap width in-between the normal fibrils versus vehicle / collagen fibrils at wound sites under polarized light: day 14, Picrosirius red; for gap width in-between the normal fibrils versus vehicle: p<0.05; for collagen fibrils at wound sites under polarized light: yellow type I, green type III collagen
Description: A similar skin wound study was also performed comparing the effects of Compound I and TGF-β3. In this study, intradermal injections of Compound I at 0.004%, TGF-β3 at 100 ng/200 μl or vehicle were given right before closing the wounds. Afterward, TGF-β3 was injected two more times, on day 1 and 2, and Compound I and vehicle were topically applied twice a day for the duration of the study. The vehicle was PBS with 0.1% BSA and 4 mM HCl in a total volume of 200 μl for injection. Skin wounds were imaged on day 3, 7, 14, 35 and 70.
as §8

[6] = biological target: T4, human recombinant EP2 receptor (HEK-293 cells) (Homo sapiens, UniProt P43116); test: AlphaScreen cAMP assay, EP2 receptor; type: cell-based; details: read-out: cAMP enhancement EC50
T4 construct: expressed in transfected cells
T4 sequence (P43116 whole entry): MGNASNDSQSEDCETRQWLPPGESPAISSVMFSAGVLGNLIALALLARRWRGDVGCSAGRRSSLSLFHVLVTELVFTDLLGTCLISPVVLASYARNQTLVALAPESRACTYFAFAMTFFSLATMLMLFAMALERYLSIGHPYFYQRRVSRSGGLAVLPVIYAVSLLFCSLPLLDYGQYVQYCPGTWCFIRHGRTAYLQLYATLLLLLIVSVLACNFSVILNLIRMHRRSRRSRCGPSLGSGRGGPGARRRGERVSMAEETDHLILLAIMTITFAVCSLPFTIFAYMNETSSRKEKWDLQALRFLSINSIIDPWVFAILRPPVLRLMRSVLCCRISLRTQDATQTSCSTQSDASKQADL
Description: as §2, §3, §4

hEP2 [7] = biological target: T5, hEP2 (Homo sapiens, UniProt P43116); test: FLIPR Ca2+ signal assay, hEP2 co-expressed with Gqs; type: cell-based; details: EP2 receptor
T5 construct: expressed in transfected cells
T5 sequence (P43116 whole entry): as above
Description: as §2, §3, §4

hEP2 [8] = biological target: T5, hEP2; test: Radioligand binding assay ([3H]PGE2 competition), EP2 receptor
Description: as §5, §6, §7, §4

[9] = 14 days post-surgery, Masson Trichrome

`CC1(C)C(=O)[C@H](C/C=C\CCCC(=O)O)[C@@H](/C=C/[C@H](O)CCc2sc3ccccc3c2Cl)[C@@H]1O` [Compound I] was tested, and the “boost of VEGF expression” value (VEGF) was 25%, the EC50 (hEP4/Gqs) was 0.11 ± 0.05 nM and the “enhancement of bFGF expression” value (bFGF) was “up to 60%”. For the same compound, the EC50 [1] was 0.25 ± 0.03 nM, the “TGF-β1-up-regulated expression of α-SMA” value [2] was “dramatically ameliorated” and the Ki [3] was 6.7 ± 0.7 nM. The “epidermal thickness of vehicle-treated skin relative to Compound I treated epidermis” value (incisional skin wounds [4]; 7 days post-skin incision) was 3 times, the “thickness of epidermal layer of treated skin” value (incisional skin wounds [4]; 7 days post-skin incision) was “close to the nearby normal epidermis” and the “gross skin scar appearance versus vehicle-treated animals” value (incisional skin wounds [4]; 14 days post-surgery) was “smaller and softer skin scar”. The “scar width at the superficial region” value (incisional skin wounds [4]; [9]) was “only a tendency to decrease”, the “scar width in the middle and bottom parts of scars” value (incisional skin wounds [4]; [9]) was “significantly reduced” and the “overall size of epidermal defects, vehicle-treated wounds compared with Compound I treated wounds” value (incisional skin wounds [4]; day 3) was “two times larger”. The “skin wound samples with closed epidermis filled with keratinocytes” value (incisional skin wounds [4]; day 3, 0.004% topical twice daily) was 80%, the “number of myofibroblasts (α-SMA-positive cells)” value (incisional skin wounds [4]; day 3 samples, vehicle control 38±6.15) was 25.8±7.45 /3 sections and the “polymorphonuclear cell infiltration at wound sites” value (incisional skin wounds [4]; days 2 and 3) was “significantly reduced”. The “number of neutrophils counted in three sections” value (incisional skin wounds [5]) was 31.4±8, the “macroscopic surface appearance of wound sites” value (incisional skin wounds [5]) was “wound sites were not even detectable” and the “abnormal regions of dense, red, fine parallel fibers in wound gaps” value (incisional skin wounds [5]) was “largely absent”. For the same compound, the “widths of the abnormal structured dermis regions versus vehicle” value (incisional skin wounds [5]; p<0.01-0.05) was “significantly smaller”, the “gap width in-between the normal fibrils versus vehicle” value (incisional skin wounds [5]) was “significantly narrower” and the “collagen fibrils at wound sites under polarized light” value (incisional skin wounds [5]) was “large yellow-stained collagen bundles almost crossing over the entire wound sites”. The “size of residual scar regions versus vehicle” value (incisional skin wounds [5]; day 70, Masson trichrome) was “remarkably smaller” and the “effect on residual scar size compared with TGF-β3” value (incisional skin wounds [5]; day 70, Masson trichrome, p<0.01-0.05) was “more noticeable than TGF-β3”.
In the case of “TGF-β3: a leading treatment for wounds, reportedly reducing skin scar in both animals and human; comparator”, the “number of neutrophils counted in three sections” value (incisional skin wounds [5]) is reported as 53.8±17, the “macroscopic surface appearance of wound sites” value (incisional skin wounds [5]) is reported as “still showed traces of wounds” and the “abnormal regions of dense, red, fine parallel fibers in wound gaps” value (incisional skin wounds [5]) is reported as “largely absent”. The “widths of the abnormal structured dermis regions versus vehicle” value (incisional skin wounds [5]; p<0.01-0.05) was “significantly smaller”, the “gap width in-between the normal fibrils versus vehicle” value (incisional skin wounds [5]) was “significantly narrower” and the “collagen fibrils at wound sites under polarized light” value (incisional skin wounds [5]) was “some green fibers at the bottom of the wounds”. The “size of residual scar regions versus vehicle” value (incisional skin wounds [5]; day 70, Masson trichrome) was “remarkably smaller”.
In the case of `CCCCC[C@H](O)c1ccc(N2C(=O)CC[C@@H]2CCCc2ccc(C(=O)O)s2)cc1` [Compound II], the EC50 [6] is reported as 0.19 nM, the EC50 (hEP2 [7]) is reported as 6.7 nM and the “TGF-β1-up-regulated expression of α-SMA” value [2] is reported as “dramatically ameliorated”. For the same compound, the Ki (hEP2 [8]) was 21 nM.
